Measured values published in patent publication US6528538B1, “Cyclic compounds useful in the treatment of dyslipidaemia, atherosclerosis and diabetes, pharamaceutical compositions and preparation process” (Merck Patentgesellschaft, priority 1998, dated 2003).

Compound | melting point
O=C(O)C1OCC2(CO1)c1ccccc1-c1ccccc12 | 158 to 160 °C
O=C(O)C1OCC2(CCC2c2ccc(Cl)cc2)CO1 (stereo not drawn) | 171 °C
CCOC(=O)C1(c2ccc(Cl)cc2)OCC2(CCC2)CO1 | 117 °C
